# Measured values as given in patent US11110141B2, “Herbal compositions for the prevention or treatment of urinary incontinence and overactive bladder” (Rox IP Pty Ltd., priority 2011, dated 2021).
# Tested on: bladder control problems (urinary frequency, nocturia, stress incontinence, interstitial cystitis)
# Test: Case studies
# Type: in vivo, human
# Experimental: person with a history of bladder frequency since childhood. They were diagnosed as a child, via cystometric studies, as having a small bladder. They were not medicated.
# They presented urinary frequency, every 1.5 hours; nocturia (waking for the toilet at night) every 1.5 to 2.5 hours.
# If consumed large quantities of alcohol (greater than 8 standard drinks), would experience flooding nocturesis (bed wetting). […]
# person with stress incontinence (2-7 times daily) and urinary frequency (11 times daily). […] When presented, they were using oxybutynin patches (Oxytrol). A specialist recommended that they change patches every 3 days.
# Person presented with interstitial cystitis that had been worsening for at least the past 5 years. They presented with penile pain (and some lower abdominal pain) that would increase in intensity the fuller their bladder, with relief on urination. As a result, they would need to urinate at least every 1.5 hours, day and night. If they went too long, the pain would increase to the point where they found it extremely difficult to walk or move. Every month, they would have an episode, usually during the night, where they would pass copious amounts of blood and some mucous from the bladder.
# They would also find that every two weeks their symptom severity would increase and they would have “horrific, sharp pain all day every day” for two days. […]
Compound,tolerability of previously tried drugs (in vivo),"tolerability of previously tried drugs (Case 2, patient history)"
Cc1ccc(O)c([C@H](CCN(C(C)C)C(C)C)c2ccccc2)c1 [Detrol],could not tolerate the side effects of dry mouth and nasal passages,–
CCN(CC)CC#CCOC(=O)C(O)(c1ccccc1)C1CCCCC1 (centres unmarked) [oxybutynin],–,could not tolerate the side effects of dry mouth and nasal passages
